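Five concentrations, 48 hours, 96-well plates. GI50: concentration for 50% inhibition of growth.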 Calls of active or inactive are those of the source. No stated cut-off is given here; in the data, active = GI50 up to about 1.1 µM and inactive = higher.
Experiments:
Test in all cases: NCI anticancer screen, dose series, 48 h
SK-MEL-5 = tested on: SK-MEL-5
ACHN = tested on: ACHN
Malme-3M = tested on: Malme-3M
HL-60 = tested on: HL-60
NCI-H460 = tested on: NCI-H460
CAKI-1 = tested on: CAKI-1
RPMI-8226 = tested on: RPMI-8226
LOX IMVI = tested on: LOX IMVI
HCT-15 = tested on: HCT-15
U-251 = tested on: U-251
NCI-H226 = tested on: NCI-H226
A498 = tested on: A498
SR = tested on: SR
786-0 = tested on: 786-0
SNB-75 = tested on: SNB-75

Compound | GI50 (SK-MEL-5) | GI50 (ACHN) | GI50 (Malme-3M) | GI50 (HL-60) | GI50 (NCI-H460) | GI50 (CAKI-1) | GI50 (RPMI-8226) | GI50 (LOX IMVI) | GI50 (HCT-15) [µM] | GI50 (U-251) | GI50 (NCI-H226) | GI50 (A498) | GI50 (SR) | GI50 (786-0) | GI50 (SNB-75)
COC(=O)C(=O)C(C(=O)C(=O)Nc1cccc(C(C)=O)c1)c1nc2ccc([N+](=O)[O-])cc2nc1O (centres undefined) | > 100 µM (inactive) | > 100 µM (inactive) | > 100 µM (inactive) | 80 µM (inactive) | > 100 µM (inactive) | > 100 µM (inactive) | > 100 µM (inactive) | > 100 µM (inactive) | > 100 | > 100 µM (inactive) | > 100 µM (inactive) | > 100 µM (inactive) | > 100 µM (inactive) | > 100 µM (inactive) | –
C[C@]12CCc3nonc3C1CC[C@@H]1C2CC[C@@]2(C)C1CC[C@@H]2O (some centres undefined) | > 100 µM (inactive) | > 100 µM (inactive) | > 100 µM (inactive) | > 100 µM (inactive) | > 100 µM (inactive) | > 100 µM (inactive) | > 100 µM (inactive) | > 100 µM (inactive) | > 100 | > 100 µM (inactive) | > 100 µM (inactive) | > 100 µM (inactive) | – | > 100 µM (inactive) | 86.7 µM (inactive)
Cc1ccc(NC(=O)CCC(=O)C2CC(=O)CCC2=O)cc1C (centres undefined) | > 100 µM (inactive) | > 100 µM (inactive) | > 100 µM (inactive) | > 100 µM (inactive) | > 100 µM (inactive) | > 100 µM (inactive) | – | > 100 µM (inactive) | > 100 | > 100 µM (inactive) | > 100 µM (inactive) | – | – | > 100 µM (inactive) | –
CN(/N=C/c1ccnc2ccccc12)c1c([N+](=O)[O-])cc([N+](=O)[O-])cc1[N+](=O)[O-] | 34.2 µM (inactive) | 72.6 µM (inactive) | 31.5 µM (inactive) | 22.4 µM (inactive) | > 100 µM (inactive) | 25.1 µM (inactive) | 26.6 µM (inactive) | 48.2 µM (inactive) | 44.5 | 88.3 µM (inactive) | 71.4 µM (inactive) | 48.8 µM (inactive) | – | > 100 µM (inactive) | > 100 µM (inactive)
COC(=O)/C=C(C)/C=C/c1cc(C(C)=O)c(C)o1 | – | > 100 µM (inactive) | > 100 µM (inactive) | > 100 µM (inactive) | > 100 µM (inactive) | > 100 µM (inactive) | 54.7 µM (inactive) | > 100 µM (inactive) | > 100 | > 100 µM (inactive) | – | – | > 100 µM (inactive) | > 100 µM (inactive) | 68.4 µM (inactive)
CC(C)C(NCc1c2ccccc2[n+]([O-])c2ccccc12)C(=O)O (centres undefined) | 46.5 µM (inactive) | 42.3 µM (inactive) | 92.7 µM (inactive) | 30.3 µM (inactive) | 68.9 µM (inactive) | > 100 µM (inactive) | 28.2 µM (inactive) | 33.8 µM (inactive) | 31 | 38.1 µM (inactive) | 35.4 µM (inactive) | > 100 µM (inactive) | – | 54.7 µM (inactive) | 20.9 µM (inactive)
CC(=O)O[C@H]1CC[C@@]2(C)C(=CC[C@@H]3C2CC[C@]2(C)Nc4oncc4CC32)C1 (some centres undefined) | 17.8 µM (inactive) | 25.6 µM (inactive) | 25.3 µM (inactive) | 11.7 µM (inactive) | 20.3 µM (inactive) | 31.3 µM (inactive) | 16.9 µM (inactive) | – | 33 | 37.4 µM (inactive) | 15 µM (inactive) | 40.6 µM (inactive) | – | > 100 µM (inactive) | 24.2 µM (inactive)
Cn1cc2ccccc2c1-c1nc(F)nc(Oc2ccc3c(c2)CC[C@@H]2C3CC[C@@]3(C)C2C[C@H](O)[C@@H]3O)n1 (some centres undefined) | 17.7 µM (inactive) | 20.2 µM (inactive) | 24.8 µM (inactive) | 22.4 µM (inactive) | 30.9 µM (inactive) | 18.1 µM (inactive) | 16.7 µM (inactive) | – | 12.2 | 10.3 µM (inactive) | – | 27.3 µM (inactive) | – | 16.4 µM (inactive) | 20.5 µM (inactive)
NC(=O)c1ccccc1NC(=O)C(=O)Cc1nc2ccccc2nc1O | > 100 µM (inactive) | > 100 µM (inactive) | > 100 µM (inactive) | > 100 µM (inactive) | > 100 µM (inactive) | > 100 µM (inactive) | > 100 µM (inactive) | > 100 µM (inactive) | > 100 | > 100 µM (inactive) | – | > 100 µM (inactive) | – | > 100 µM (inactive) | 60.8 µM (inactive)
CC(C)c1cccc(C(C)C)c1NC1=CC(=O)C(=O)c2ccccc21 | > 100 µM (inactive) | – | > 100 µM (inactive) | 77.8 µM (inactive) | > 100 µM (inactive) | > 100 µM (inactive) | > 100 µM (inactive) | 36.3 µM (inactive) | > 100 | > 100 µM (inactive) | > 100 µM (inactive) | > 100 µM (inactive) | 35.5 µM (inactive) | > 100 µM (inactive) | –
O=C(O)/C(=C/C=C/c1ccccc1)c1csc(-c2nc(/C(=C\C=C\c3ccccc3)C(=O)O)cs2)n1 | 33 µM (inactive) | 28 µM (inactive) | 27.2 µM (inactive) | 17.5 µM (inactive) | 40.8 µM (inactive) | – | 22.7 µM (inactive) | 29.5 µM (inactive) | 23.4 | 38.5 µM (inactive) | – | 68.2 µM (inactive) | – | 23.2 µM (inactive) | 28.1 µM (inactive)
Cc1ccc(C(O)/C(=N/N)c2nc3ccc([N+](=O)[O-])cc3nc2O)cc1 (centres undefined) | 43.2 µM (inactive) | 47.3 µM (inactive) | > 100 µM (inactive) | 27 µM (inactive) | > 100 µM (inactive) | – | 40.6 µM (inactive) | > 100 µM (inactive) | 28 | > 100 µM (inactive) | > 100 µM (inactive) | – | 58.7 µM (inactive) | > 100 µM (inactive) | 43.7 µM (inactive)
CCCCCN(CCCCC)C(=O)[C@H](CCC(=O)OCc1ccccc1)NC(=O)c1cc2ccccc2[nH]1 | – | > 100 µM (inactive) | > 100 µM (inactive) | > 100 µM (inactive) | > 100 µM (inactive) | > 100 µM (inactive) | 0.343 µM (active) | > 100 µM (inactive) | > 100 | > 100 µM (inactive) | > 100 µM (inactive) | > 100 µM (inactive) | – | > 100 µM (inactive) | > 100 µM (inactive)
COC(=O)[C@H]1C2CC[C@@H]3C45C[C@@H](c6ccoc6)O[C@@H]4O[C@@H](O2)C31CCC5C (some centres undefined) | > 100 µM (inactive) | > 100 µM (inactive) | > 100 µM (inactive) | > 100 µM (inactive) | > 100 µM (inactive) | > 100 µM (inactive) | > 100 µM (inactive) | > 100 µM (inactive) | 86.3 | > 100 µM (inactive) | 76.7 µM (inactive) | > 100 µM (inactive) | – | 91.2 µM (inactive) | –
O=C(NCc1ccc2ccc3cccnc3c2n1)c1ccc[n+](Cc2ccccc2)c1 | 74 µM (inactive) | > 100 µM (inactive) | 75.2 µM (inactive) | > 100 µM (inactive) | > 100 µM (inactive) | – | 54.8 µM (inactive) | > 100 µM (inactive) | > 100 | > 100 µM (inactive) | > 100 µM (inactive) | – | > 100 µM (inactive) | > 100 µM (inactive) | > 100 µM (inactive)

From ChEMBL document CHEMBL1201862, “PubChem BioAssay data set” (2004)
